US20150203474A1, “SOLID FORMS COMPRISING INHIBITORS OF HCV NS5A, COMPOSITIONS THEREOF, AND USES THEREWITH” (PRESIDIO PHARMACEUTICALS ,INC., priority 2012, published 2015)
Where two headings read alike, the source gives them in different places.

Columns and labels:
[1] = PK study of Form A of Compound I in rats; format: in vivo; conditions: male, Sprague-Dawley, rat, plasma, po, 75 mg/kg, single PO dose of 75 mg/kg, male SD rats
Description: The pharmacokinetics (PK) properties of Form A of Compound I and Form I of Compound II were determined in a series of comprehensive experiments in preclinical species including Sprague-Dawley rats, beagle dogs, cynomolgus monkeys. In those studies, the Form A crystalline salt of Compound I (and Form I crystalline salt of Compound II) was formulated in saline, 0.5% MC in saline or other commonly used suitable formulation vehicles to give a clear solution or as a suspension or a paste depending on the concentration intended to reach and the choice of vehicles. Dosing was by oral gavage. Blood samples were drawn and placed into individual tube containing K2EDTA. Blood samples were put on ice and centrifuged (2000 g for 5 minutes at 4° C.) to obtain plasma within 15 minutes after collection. Plasma samples were stored at approximately −80° C. freezer until analysis. For most of these analyses, Compound I (and Compound II) and the internal standard (IS) were extracted from rat, monkey or dog plasma by protein precipitation, and the extract was evaporated, reconstituted and analyzed using HPLC with tandem mass spectrometric detection (HPLC-MS/MS), see examples for further details. Calibration was accomplished by weighted linear regression of the ratio of the peak area of analyte to that of the added internal standard (IS). For the validated assay in rat and monkey EDTA plasma, the Lower Limit of Quantitation (LLOQ) for both compound 1 and 2 was 5.00 ng/mL, and the assay was linear from 5.00-1,000 ng/mL. PK parameters were calculated by non-compartmental analysis using WinNonlin (versions 4.1 through 6.1). 1) Weighed 922.80 mg of Form A of Compound I (equivalent to 824.603 mg of free base) into a clean tube. 2) Added 54.974 mL of 0.5% methylcellulose in saline into the tube containing the Form A of Compound I, vortexed for 3-5 min and sonicated for 10-15 min. The dosing solution was a light yellow and clear solution. Sprague Dawley rats, ˜7-9 weeks old and weighing ˜210-270 g, were given the above dosing solution at 5 mL/kg. […] Sample Preparation for Analysis: An aliquot of 30 μL of plasma sample was mixed with 30 μL of the IS (200 ng/mL), then mixed with 150 μL ACN for protein precipitation. The mixture was vortexed for 2 min and centrifuged at 12000 rpm for 5 min. An aliquot of 1 μL of supernatant was injected onto HPLC-MS/MS, if no further dilution was needed. To prepare a 10-fold diluted plasma samples, an aliquot of 10 μL plasma sample was mixed with 90 μL blank plasma to obtain the diluted plasma samples. The extraction procedure for diluted samples was as the same as that used for the non-diluted samples. • Compound Concentration Quantitation: • Instrument HPLC-MS/MS-12 (API4000), on positive ionization mode, ESI+ • HPLC Conditions Mobile Phase A: H2O—0.025% formic acid (FA)—1 mM NH4OAc • Mobile Phase B: MeOH—0.025% FA—1 mM NH4OAc Pharmacokinetic analysis was done using the WinNonlin software (Version 5.3, Pharsight Corporation, California, USA). Any concentration data under LLOQ (LLOQ=1.00 ng/mL in rat plasma and 3.00 ng/mL in rat liver homogenate) were replaced with “BQL”.

[2] = Moisture sorption/desorption (DVS) of Compound I Form A; format: physicochemical; conditions: 25° C.
Description: Dynamic vapor sorption/desorption (DVS) data were collected on a VTI SGA-100 Vapor Sorption Analyzer. NaCl and PVP were used as calibration standards. Samples were not dried prior to analysis. Adsorption and desorption data were collected over a range from 5 to 95% RH at 10% RH increments under a nitrogen purge. The equilibrium criterion used for analysis was less than 0.0100% weight change in 5 minutes with a maximum equilibration time of 3 hours. Data were not corrected for the initial moisture content of the samples. Moisture sorption/desorption data were collected for the sample on a VTI […] Vapor Sorption Analyzer. NaCl and PVP were used as calibration standards. Samples were vacuum dried prior to analysis. Sorption and desorption data were collected over a range from 5 to 95% RH at 10% RH increments under a nitrogen purge. The equilibrium criterion used for analysis was less than 0.0100% weight change in 5 minutes with a maximum equilibration time of 3 hours. Data were not corrected for the initial moisture content of the samples. FIG. 15 illustrates the graphed Weight % vs. Relative Humidity.

[3] = Mean (N = 3), read-out: mean plasma concentration
[4] = Rat #1, read-out: plasma concentration
[5] = Rat #2, read-out: plasma concentration
[6] = Rat #3, read-out: plasma concentration
[7] = with respect to the initial sample weight

## COC(=O)N[C@H](C(=O)N1CCC[C@H]1c1ncc(-c2ccc3cc(-c4ccc5nc([C@@H]6CCCN6C(=O)[C@@H](NC(=O)OC)C(C)C)[nH]c5c4)ccc3c2)[nH]1)C(C)C [Form A of Compound I]
[1]; [3]
  concentration at 1 h: 5970 ng/mL
  concentration at 2 h: 7430 ng/mL
  concentration at 3 h: 8340 ng/mL
  concentration at 4 h: 3930 ng/mL
  concentration at 6 h: 2850 ng/mL
  concentration at 8 h: 531 ng/mL
  concentration at 12 h: 176 ng/mL
  concentration at 24 h: 8.07 ng/mL
[1]; [4]
  concentration at 1 h: 6210 ng/mL
  concentration at 2 h: 8030 ng/mL
  concentration at 3 h: 5670 ng/mL
  concentration at 4 h: 3680 ng/mL
  concentration at 6 h: 2780 ng/mL
  concentration at 8 h: 498 ng/mL
  concentration at 12 h: 188 ng/mL
  concentration at 24 h: 8.12 ng/mL
[1]; [5]
  concentration at 1 h: 5480 ng/mL
  concentration at 2 h: 7890 ng/mL
  concentration at 3 h: 8060 ng/mL
  concentration at 4 h: 5170 ng/mL
  concentration at 6 h: 3370 ng/mL
  concentration at 8 h: 704 ng/mL
  concentration at 12 h: 277 ng/mL
  concentration at 24 h: 7.95 ng/mL
[1]; [6]
  concentration at 1 h: 6230 ng/mL
  concentration at 2 h: 6380 ng/mL
  concentration at 3 h: 11300 ng/mL
  concentration at 4 h: 2930 ng/mL
  concentration at 6 h: 2400 ng/mL
  concentration at 8 h: 390 ng/mL
  concentration at 12 h: 63.6 ng/mL
  concentration at 24 h: 8.15 ng/mL
[2]; desorption, Samp RH 5.17 %
  Weight % chg: 0.673%
[2]; desorption, Samp RH 14.73 %
  Weight % chg: 2.010%
[2]; desorption, Samp RH 25.12 %
  Weight % chg: 3.025%
[2]; desorption, Samp RH 35.13 %
  Weight % chg: 3.870%
[2]; desorption, Samp RH 44.99 %
  Weight % chg: 4.590%
[2]; desorption, Samp RH 55.17 %
  Weight % chg: 5.352%
[2]; desorption, Samp RH 65.08 %
  Weight % chg: 5.993%
[2]; desorption, Samp RH 75.27 %
  Weight % chg: 6.741%
[2]; desorption, Samp RH 85.24 %
  Weight % chg: 7.855%
[2]; sorption, Samp RH 5.09 %
  Weight % chg: −0.187%
[2]; sorption, Samp RH 14.73 %
  Weight % chg: 0.065%
[2]; sorption, Samp RH 24.93 %
  Weight % chg: 0.303%
[2]; sorption, Samp RH 34.87 %
  Weight % chg: 0.521%
[2]; sorption, Samp RH 44.91 %
  Weight % chg: 0.780%
[2]; sorption, Samp RH 54.80 %
  Weight % chg: 1.082%
[2]; sorption, Samp RH 64.95 %
  Weight % chg: 1.458%
[2]; sorption, Samp RH 74.71 %
  Weight % chg: 1.868%
[2]; sorption, Samp RH 84.57 %
  Weight % chg: 2.502%
[2]; sorption, Samp RH 94.86 %
  Weight % chg: 10.824%
[2]; [7]
  % wt change upon equilibration at 5% RH: −0.187 % wt
  % wt gain from 5%-85% RH: 2.689 % wt
  % wt gain from 85%-95% RH: 8.322 % wt
  % wt lost from 95%-5% RH: 10.151 % wt
